From ChEMBL document CHEMBL5634070, “Assessment of the structure-activity relationship and antileukemic activity of diacylpyramide compounds as human ClpP agonists” (Eur J Med Chem, 2023) come the findings set out here.

Molecules are shown by their SMILES. pEC50: −log10 of the molar value.

Test [1] has as its target T1, ATP-dependent Clp protease proteolytic subunit, mitochondrial (Homo sapiens, UniProt Q16740). Nature of the test: Agonist activity at human CLpP by measuring alpha-casein hydrolysis using alpha-casein as substrate preincubated for 10 mins followed by substrate addition and measured after 120 mins by Coomassie brilliant blue staining based SDS-PAGE assay.
Another test relates to MOLM-13. Nature of the test: Antiproliferative activity against human MOLM-13 cells assessed as inhibition of cell growth at 20 uM by CCK-8 assay relative to control. In kind it is functional.
In test [2] the target is T1, ATP-dependent Clp protease proteolytic subunit, mitochondrial. The test is described as follows: Agonist activity at human CLpP by measuring alpha-casein hydrolysis using alpha-casein as substrate by FITC staining based assay.
For test [3] the target is unchanged. Nature of the test: Binding affinity to human CLpP assessed as change in melting temperature by DSF assay. The conditions noted are these: filed as agonist.
The next test relates to NB-4. Nature of the test: Inhibition of colony formation in human NB4 cells incubated for 14 days. In kind it is functional, cell-based. Particulars: time 14.0 day.

T1 sequence (Q16740 whole entry): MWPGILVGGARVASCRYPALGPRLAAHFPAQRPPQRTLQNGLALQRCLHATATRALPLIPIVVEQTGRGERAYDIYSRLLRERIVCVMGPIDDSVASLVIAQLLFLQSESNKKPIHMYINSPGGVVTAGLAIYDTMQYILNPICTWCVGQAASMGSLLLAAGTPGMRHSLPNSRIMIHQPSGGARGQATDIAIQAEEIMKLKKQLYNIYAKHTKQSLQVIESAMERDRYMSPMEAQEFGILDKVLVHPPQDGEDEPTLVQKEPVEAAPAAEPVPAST

`CC[C@H](C)[C@H]1C(=O)N(Cc2cccc3ccccc23)C[C@@H]2N(C(=O)NCc3ccc(C(F)(F)F)cc3)CCC(=O)N12` had a pEC50 in test [1] of 5.11. The inhibition at 20 µM in the test with MOLM-13 came to 95.3%.
With `CC[C@H](C)[C@H]1C(=O)N(Cc2cccc3ccccc23)C[C@@H]2N(C(=O)NCC3CCCCC3)CCC(=O)N12`, the pEC50 in test [1] was 4.95. Further, the inhibition at 20 µM in the test with MOLM-13 was 99.5%.
The molecule `NC(=O)C[C@H]1C(=O)N(Cc2cccc3ccccc23)C[C@@H]2N(C(=O)NCc3ccccc3)CCC(=O)N21` gave a pEC50 in test [1] of less than 4.60. Also, the inhibition at 20 µM with MOLM-13 came to 5.5%.
On the same counts, the results for `CC[C@H](C)[C@H]1C(=O)N(Cc2cccc3ccccc23)C[C@@H]2N(C(=O)NCc3cc(F)c(F)c(F)c3)CCC(=O)N12` are 4.96 and 99.5%.
Taken in the same sequence, the figures for `CC[C@H](C)[C@H]1C(=O)N(Cc2cccc3ccccc23)C[C@@H]2N(C(=O)NCc3ccc(OC)cc3)CCC(=O)N12` were 5.47 and 99.4%.
On the same counts, the results for `CC[C@H](C)[C@H]1C(=O)N(Cc2cccc3ccccc23)C[C@@H]2N(C(=O)NCc3c(F)cc(Br)cc3F)CCC(=O)N12` are less than 4.60 and 99.1%.
The molecule `CC(C)C[C@H]1C(=O)N(Cc2cccc3ccccc23)C[C@@H]2N(C(=O)NCc3ccccc3)CCC(=O)N21` had a negative logarithm of the EC50 (pEC50) in test [1] of 5.14. Moreover, the inhibition at 20 µM in the test with MOLM-13 is 82.5%.
On the same counts, the results for `CC[C@H](C)[C@H]1C(=O)N(Cc2ccc(F)c3ccccc23)C[C@@H]2N(C(=O)NCc3ccc(Br)cc3)CCC(=O)N12` are 5.42 and 97.7%.
In test [1], `CC[C@H](C)[C@H]1C(=O)N(Cc2cccc3ccccc23)C[C@@H]2N(C(=O)NCc3ccc(Cl)cc3)CCC(=O)N12` gave a pEC50 of 5.57. Further, the inhibition at 20 µM in the test on MOLM-13 amounted to 98.3%.
On the same counts, the results for `O=C1[C@H](Cc2ccc(O)cc2)N2C(=O)CCN(C(=O)NCc3ccccc3)[C@H]2CN1Cc1cccc2ccccc12` are 5.15 and 86.9%.
In test [1], `O=C1[C@H](Cc2ccccc2)N2C(=O)CCN(C(=O)NCc3ccccc3)[C@H]2CN1Cc1cccc2ccccc12` showed a negative logarithm of the EC50 (pEC50) of 4.84. Further, the inhibition at 20 µM with MOLM-13 worked out at 34%.
In turn, `O=C1[C@H](Cc2cnc[nH]2)N2C(=O)CCN(C(=O)NCc3ccccc3)[C@H]2CN1Cc1cccc2ccccc12` gave a pEC50 in test [1] of 4.64. For the same molecule, the inhibition at 20 µM in the test on MOLM-13 turned out to be 13.4%.
On the same counts, the results for `CC[C@H](C)[C@H]1C(=O)N(Cc2cccc3ccccc23)C[C@@H]2N(C(=O)NCc3ccccc3)CCC(=O)N12` are 5.11 and 97.9%.
With `CC[C@H](C)[C@H]1C(=O)N(Cc2cccc3ccccc23)C[C@@H]2N(C(=O)NC(C)(C)c3ccccc3)CCC(=O)N12`, in test [1], the pEC50 is 5.37. Also, the inhibition at 20 µM in the test with MOLM-13 is 46.3%.
Taken in the same sequence, the figures for `CC[C@H](C)[C@H]1C(=O)N(Cc2cccc3ccccc23)C[C@@H]2N(C(=O)NCc3ccc(F)c(Cl)c3)CCC(=O)N12` were 5.47 and 97.9%.
Taken in the same sequence, the figures for `CC[C@H](C)[C@H]1C(=O)N(Cc2cccc3ccccc23)C[C@@H]2N(C(=O)NCc3ccc(C)cc3)CCC(=O)N12` were 5.48 and 99.4%.
In the case of `CC[C@H](C)[C@H]1C(=O)N(Cc2cccc3ccccc23)C[C@@H]2N(C(=O)NCc3ccc(Br)cc3)CCC(=O)N12`, the values for the negative logarithm of the EC50 (pEC50) in test [1] and in test [2] were 5.55 and 5.92, respectively. Besides, the inhibition at 20 µM in the test with MOLM-13 came to 99.7%. For the same molecule, the ΔTm in test [3] was determined as 16.4 °C. The inhibition entry in the test on NB-4 was “Dose-Dependent Effect”.
In turn, `CC[C@H](C)[C@H]1C(=O)N(Cc2cccc3ccccc23)C[C@@H]2N(C(=O)NCc3ccc(Br)cc3F)CCC(=O)N12` showed a negative-log EC50 (pEC50) in test [1] of 5.25. Also, the inhibition at 20 µM in the test on MOLM-13 was determined as 98%.
Take `CC[C@H](C)[C@H]1C(=O)N(Cc2cccc3ccccc23)C[C@@H]2N(C(=O)NCc3cc(F)c(Br)c(F)c3)CCC(=O)N12`: the pEC50 in test [1] is 5.44. For the same molecule, in the test with MOLM-13, the inhibition at 20 µM was 99.1%.
On the same counts, the results for `CC[C@H](C)[C@H]1C(=O)N(Cc2cccc3ccccc23)C[C@@H]2N(C(=O)CCc3ccc(F)cc3)CCC(=O)N12` are 4.98 and 58.2%.
Regarding `CC[C@H](C)[C@H]1C(=O)N(Cc2cccc3ccccc23)C[C@@H]2N(C(=O)NCc3ccc(C(C)C)cc3)CCC(=O)N12`, in test [1], the negative logarithm of the EC50 (pEC50) is less than 4.60. For the same molecule, the inhibition at 20 µM in the test on MOLM-13 was 97.7%.
Taken in the same sequence, the figures for `CC[C@H](C)[C@H]1C(=O)N(Cc2cccc3ccccc23)C[C@@H]2N(C(=O)NCc3c(F)c(F)c(F)c(F)c3F)CCC(=O)N12` were 4.80 and 99.9%.
Taken in the same sequence, the figures for `CC[C@H](C)[C@H]1C(=O)N(Cc2cccc3c2OCO3)C[C@@H]2N(C(=O)NCc3ccc(Br)cc3)CCC(=O)N12` were 4.83 and 44.4%.
Taken in the same sequence, the figures for `CC[C@H](C)[C@H]1C(=O)N(Cc2ccc3ccccc3c2)C[C@@H]2N(C(=O)NCc3ccc(Br)cc3)CCC(=O)N12` were less than 4.60 and 13.2%.
Regarding `CCCCNC(=O)N1CCC(=O)N2[C@@H]([C@@H](C)CC)C(=O)N(Cc3cccc4ccccc34)C[C@H]12`, the negative logarithm of the EC50 (pEC50) in test [1] is 5.34. For the same molecule, the inhibition at 20 µM with MOLM-13 was 23.6%.
On the same counts, the results for `CC[C@H](C)[C@H]1C(=O)N(Cc2cccc3ccccc23)C[C@@H]2N(C(=O)NCc3ccc(F)c(OC)c3)CCC(=O)N12` are 5.27 and 98.1%.
As for `CC[C@H](C)[C@H]1C(=O)N(Cc2cccc3ccccc23)C[C@@H]2N(C(=O)CCc3ccccc3)CCC(=O)N12`, the pEC50 in test [1] was 4.85. In addition, the inhibition at 20 µM in the test with MOLM-13 was determined as 92%.
Taken in the same sequence, the figures for `CC[C@H](C)[C@H]1C(=O)N(Cc2cccc3ccccc23)C[C@@H]2N(C(=O)NCc3ccc4c(c3)OCO4)CCC(=O)N12` were 5.24 and 78.6%.
On the same counts, the results for `CSCC[C@H]1C(=O)N(Cc2cccc3ccccc23)C[C@@H]2N(C(=O)NCc3ccccc3)CCC(=O)N21` are 4.80 and 24.4%.
On the same counts, the results for `CC[C@H](C)[C@H]1C(=O)N(Cc2cccc3ccccc23)C[C@@H]2N(C(=O)NCc3ccc4ccccc4c3)CCC(=O)N12` are 4.97 and 99.3%.
`CC[C@H](C)[C@H]1C(=O)N(Cc2cccc3ccccc23)C[C@@H]2N(C(=O)NCc3ccc(I)cc3)CCC(=O)N12` showed a pEC50 in test [1] of 5.28. In addition, the inhibition at 20 µM in the test on MOLM-13 stood at 97.5%.
On the same counts, the results for `CC[C@H](C)[C@H]1C(=O)N(Cc2cccc3ccccc23)C[C@@H]2N(C(=O)NCc3ccc(F)cc3Cl)CCC(=O)N12` are 5.06 and 99.8%.
Taken in the same sequence, the figures for `CC[C@H](C)[C@H]1C(=O)N(Cc2cccc3ccccc23)C[C@@H]2N(C(=O)NCc3ccc(F)c(Br)c3)CCC(=O)N12` were 5.44 and 97.6%.
Taken in the same sequence, the figures for `CC[C@H](C)[C@H]1C(=O)N(Cc2cccc3ccccc23)C[C@@H]2N(C(=O)NCC3CCOCC3)CCC(=O)N12` were less than 4.60 and 6.3%.
Molecule `CC[C@H](C)[C@H]1C(=O)N(Cc2cccc3ccccc23)C[C@@H]2N(C(=O)NCc3cc(Br)cc(Br)c3)CCC(=O)N12` had a pEC50 in test [1] of less than 4.60. Also, the inhibition at 20 µM in the test on MOLM-13 came out at 98.4%.
On the same counts, the results for `CC[C@H](C)[C@H]1C(=O)N(Cc2cccc3ccccc23)C[C@@H]2N(C(=O)NCc3ccc(OC)c(OC)c3)CCC(=O)N12` are less than 4.60 and 35.2%.
On the same counts, the results for `CC[C@H](C)[C@H]1C(=O)N(Cc2cccc3ccccc23)C[C@@H]2N(C(=O)NCc3ccc(F)c(F)c3)CCC(=O)N12` are 5.43 and 99.6%.
